Earlier results as cited in patent US12599665B2, “Gene fusions for control of genetically modified cells” (A2 Biotherapeutics, Inc., priority 2020, dated 2026).

What was measured:
[1] = target: T1, ER(T2) (human ER LBD G400V/M543A/L544A) (Homo sapiens, UniProt P03372, G400V/L544A/M543A); details: ER(T2) vs ER(T); cited from earlier work
T1 construct: a human ER LBD and comprising point mutations G400V/M543A/L544A, which is termed ER(T2)
T1 sequence (P03372 311-547 G400V/M543A/L544A limits assumed): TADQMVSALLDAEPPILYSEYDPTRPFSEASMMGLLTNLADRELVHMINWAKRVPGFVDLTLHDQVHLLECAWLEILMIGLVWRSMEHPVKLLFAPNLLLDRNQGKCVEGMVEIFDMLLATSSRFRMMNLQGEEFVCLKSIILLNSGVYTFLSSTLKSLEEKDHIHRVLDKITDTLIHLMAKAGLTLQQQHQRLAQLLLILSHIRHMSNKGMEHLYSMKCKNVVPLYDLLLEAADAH

[2] = target: T2, Peroxisome proliferator-activated receptor-γ (NR1C3) (Homo sapiens, UniProt P37231); details: antagonist, Table 2, cited from earlier work
T2 sequence (P37231 1-505): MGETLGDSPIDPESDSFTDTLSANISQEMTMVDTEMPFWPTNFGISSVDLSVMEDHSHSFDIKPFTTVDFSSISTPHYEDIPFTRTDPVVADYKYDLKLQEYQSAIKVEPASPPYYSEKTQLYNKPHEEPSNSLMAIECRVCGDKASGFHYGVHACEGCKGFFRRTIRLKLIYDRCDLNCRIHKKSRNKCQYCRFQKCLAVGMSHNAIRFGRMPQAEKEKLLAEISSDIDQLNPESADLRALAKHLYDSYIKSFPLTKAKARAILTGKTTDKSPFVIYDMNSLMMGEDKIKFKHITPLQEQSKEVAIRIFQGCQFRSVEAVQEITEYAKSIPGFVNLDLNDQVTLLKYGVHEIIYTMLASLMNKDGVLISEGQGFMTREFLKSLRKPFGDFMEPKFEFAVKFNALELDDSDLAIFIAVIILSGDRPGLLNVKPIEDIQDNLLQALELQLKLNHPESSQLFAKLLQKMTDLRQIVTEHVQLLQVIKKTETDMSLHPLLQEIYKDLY

[3] = target: T3, Peroxisome proliferator-activated receptor-α (NR1C1) (Homo sapiens, UniProt Q07869); details: antagonist, Table 2; cited from earlier work
T3 sequence (Q07869 1-468): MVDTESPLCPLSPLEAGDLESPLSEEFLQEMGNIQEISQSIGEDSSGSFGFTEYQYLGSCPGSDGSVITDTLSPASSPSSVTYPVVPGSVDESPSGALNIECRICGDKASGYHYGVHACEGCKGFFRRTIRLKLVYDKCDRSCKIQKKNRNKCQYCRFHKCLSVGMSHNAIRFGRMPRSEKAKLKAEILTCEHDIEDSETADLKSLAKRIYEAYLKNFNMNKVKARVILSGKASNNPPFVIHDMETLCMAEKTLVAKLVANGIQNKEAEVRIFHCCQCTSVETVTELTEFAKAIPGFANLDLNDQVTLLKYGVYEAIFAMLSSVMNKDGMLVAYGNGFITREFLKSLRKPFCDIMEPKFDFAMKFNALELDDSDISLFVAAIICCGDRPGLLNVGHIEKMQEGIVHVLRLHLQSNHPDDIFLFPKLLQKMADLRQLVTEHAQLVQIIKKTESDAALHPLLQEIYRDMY

[4] = target: Estrogen receptor-β (NR3A2) (Homo sapiens, UniProt Q92731); details: antagonist, Table 2; cited from earlier work
Rev-Erb-α (NR1D1) = target: T4, Rev-Erb-α (NR1D1) (Homo sapiens, UniProt P20393); details: antagonist, Table 2; cited from earlier work
T4 sequence (P20393 1-614): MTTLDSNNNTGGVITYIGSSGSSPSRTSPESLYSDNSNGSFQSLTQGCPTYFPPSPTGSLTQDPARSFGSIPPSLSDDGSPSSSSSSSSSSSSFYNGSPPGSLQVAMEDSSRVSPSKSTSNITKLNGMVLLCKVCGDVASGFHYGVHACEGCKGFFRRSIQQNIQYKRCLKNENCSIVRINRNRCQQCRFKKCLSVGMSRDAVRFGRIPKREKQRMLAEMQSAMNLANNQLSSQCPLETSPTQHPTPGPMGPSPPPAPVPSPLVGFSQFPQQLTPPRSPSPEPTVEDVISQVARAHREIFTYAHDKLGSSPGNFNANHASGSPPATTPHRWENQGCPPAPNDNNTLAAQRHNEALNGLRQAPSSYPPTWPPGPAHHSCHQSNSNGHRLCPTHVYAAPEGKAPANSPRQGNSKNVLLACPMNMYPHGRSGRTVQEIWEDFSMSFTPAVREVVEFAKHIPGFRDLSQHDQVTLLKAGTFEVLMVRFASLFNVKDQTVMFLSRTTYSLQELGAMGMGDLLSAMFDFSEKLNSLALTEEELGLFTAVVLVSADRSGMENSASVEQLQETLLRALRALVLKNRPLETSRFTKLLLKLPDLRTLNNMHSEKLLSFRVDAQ

Vitamin D receptor [5] = target: T5, Vitamin D receptor (Gallus gallus, UniProt O42392); details: antagonist, Table 2; Chicken; cited from earlier work
T5 sequence (O42392 1-451): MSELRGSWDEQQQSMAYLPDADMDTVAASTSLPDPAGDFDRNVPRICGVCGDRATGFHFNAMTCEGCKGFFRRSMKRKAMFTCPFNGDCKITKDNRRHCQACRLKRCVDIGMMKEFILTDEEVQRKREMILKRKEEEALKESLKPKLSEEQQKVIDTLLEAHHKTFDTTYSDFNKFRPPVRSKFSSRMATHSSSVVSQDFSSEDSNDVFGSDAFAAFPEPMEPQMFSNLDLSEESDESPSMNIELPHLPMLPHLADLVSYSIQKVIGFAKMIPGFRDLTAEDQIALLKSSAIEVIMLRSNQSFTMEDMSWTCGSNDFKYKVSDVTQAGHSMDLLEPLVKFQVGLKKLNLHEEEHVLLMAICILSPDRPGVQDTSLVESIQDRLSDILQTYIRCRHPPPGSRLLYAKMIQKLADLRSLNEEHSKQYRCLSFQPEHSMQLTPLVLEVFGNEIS

Vitamin D receptor [6] = target: T6, Vitamin D receptor (Homo sapiens, UniProt P11473); details: antagonist, Table 2; cited from earlier work
T6 sequence (P11473 1-427): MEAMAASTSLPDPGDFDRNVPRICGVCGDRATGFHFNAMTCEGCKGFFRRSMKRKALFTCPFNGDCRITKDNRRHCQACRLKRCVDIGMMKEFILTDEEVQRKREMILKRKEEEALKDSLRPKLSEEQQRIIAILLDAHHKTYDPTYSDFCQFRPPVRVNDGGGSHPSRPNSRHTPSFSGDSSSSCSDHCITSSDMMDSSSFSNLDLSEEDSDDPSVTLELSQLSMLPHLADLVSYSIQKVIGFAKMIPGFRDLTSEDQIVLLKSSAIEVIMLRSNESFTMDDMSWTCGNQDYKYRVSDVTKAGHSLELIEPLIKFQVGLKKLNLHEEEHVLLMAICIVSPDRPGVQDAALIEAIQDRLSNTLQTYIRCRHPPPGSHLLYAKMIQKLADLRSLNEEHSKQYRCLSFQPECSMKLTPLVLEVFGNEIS

[7] = target: T7, Mineralocorticoid receptor (NR3C2) (Homo sapiens, UniProt P08235); details: antagonist, Table 2; cited from earlier work
T7 sequence (P08235 1-984): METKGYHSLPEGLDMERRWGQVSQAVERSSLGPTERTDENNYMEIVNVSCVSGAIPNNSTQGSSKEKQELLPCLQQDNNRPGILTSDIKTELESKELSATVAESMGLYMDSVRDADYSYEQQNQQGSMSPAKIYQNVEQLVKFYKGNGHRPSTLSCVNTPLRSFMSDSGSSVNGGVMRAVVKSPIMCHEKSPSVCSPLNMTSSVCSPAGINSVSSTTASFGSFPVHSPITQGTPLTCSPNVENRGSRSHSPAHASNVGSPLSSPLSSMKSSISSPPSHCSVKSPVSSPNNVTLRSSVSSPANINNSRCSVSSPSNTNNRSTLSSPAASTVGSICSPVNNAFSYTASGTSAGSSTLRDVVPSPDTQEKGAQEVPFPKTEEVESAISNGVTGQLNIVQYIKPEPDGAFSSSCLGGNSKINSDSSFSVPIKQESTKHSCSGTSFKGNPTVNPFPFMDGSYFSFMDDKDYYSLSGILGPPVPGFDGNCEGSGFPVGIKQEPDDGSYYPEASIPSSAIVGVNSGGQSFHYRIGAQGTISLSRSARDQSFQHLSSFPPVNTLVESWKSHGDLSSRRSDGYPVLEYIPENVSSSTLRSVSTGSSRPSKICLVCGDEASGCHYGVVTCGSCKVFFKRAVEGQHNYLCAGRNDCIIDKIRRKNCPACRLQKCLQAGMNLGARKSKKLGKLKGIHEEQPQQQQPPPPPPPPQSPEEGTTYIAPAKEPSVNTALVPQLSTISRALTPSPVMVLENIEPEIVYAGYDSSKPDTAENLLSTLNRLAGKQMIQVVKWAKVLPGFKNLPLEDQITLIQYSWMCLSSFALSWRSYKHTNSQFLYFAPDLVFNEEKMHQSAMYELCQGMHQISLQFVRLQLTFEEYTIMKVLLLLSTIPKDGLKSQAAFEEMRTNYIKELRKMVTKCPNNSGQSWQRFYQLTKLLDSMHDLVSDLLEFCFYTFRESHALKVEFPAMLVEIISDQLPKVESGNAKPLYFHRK

[8] = target: T8, Glucocorticoid receptor (NR3C1) (Homo sapiens, UniProt P04150); details: antagonist, Table 2; cited from earlier work
T8 sequence (P04150 1-777): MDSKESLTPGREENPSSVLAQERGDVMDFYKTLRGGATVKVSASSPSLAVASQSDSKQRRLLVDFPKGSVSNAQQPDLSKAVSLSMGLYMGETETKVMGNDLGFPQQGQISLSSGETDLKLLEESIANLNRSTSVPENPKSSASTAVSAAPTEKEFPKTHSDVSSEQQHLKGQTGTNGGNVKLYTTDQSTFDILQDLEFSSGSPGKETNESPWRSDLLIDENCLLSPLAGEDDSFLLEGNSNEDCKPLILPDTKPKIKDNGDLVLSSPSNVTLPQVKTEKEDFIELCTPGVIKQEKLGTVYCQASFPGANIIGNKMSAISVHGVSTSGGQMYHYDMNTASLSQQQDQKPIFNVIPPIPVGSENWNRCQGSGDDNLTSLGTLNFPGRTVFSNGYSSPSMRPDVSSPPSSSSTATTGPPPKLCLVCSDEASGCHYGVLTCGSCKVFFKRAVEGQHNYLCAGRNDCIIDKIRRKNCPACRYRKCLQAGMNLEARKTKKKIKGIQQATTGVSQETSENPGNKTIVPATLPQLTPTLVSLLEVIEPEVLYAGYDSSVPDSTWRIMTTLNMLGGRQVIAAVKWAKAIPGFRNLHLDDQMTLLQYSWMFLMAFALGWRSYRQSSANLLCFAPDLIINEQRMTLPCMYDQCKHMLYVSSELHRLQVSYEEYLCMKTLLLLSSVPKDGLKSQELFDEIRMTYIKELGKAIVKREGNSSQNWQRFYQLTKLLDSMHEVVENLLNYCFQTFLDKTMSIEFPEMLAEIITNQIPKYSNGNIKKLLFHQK

Estrogen receptor-β (NR3A2), sequence (Q92731 whole entry): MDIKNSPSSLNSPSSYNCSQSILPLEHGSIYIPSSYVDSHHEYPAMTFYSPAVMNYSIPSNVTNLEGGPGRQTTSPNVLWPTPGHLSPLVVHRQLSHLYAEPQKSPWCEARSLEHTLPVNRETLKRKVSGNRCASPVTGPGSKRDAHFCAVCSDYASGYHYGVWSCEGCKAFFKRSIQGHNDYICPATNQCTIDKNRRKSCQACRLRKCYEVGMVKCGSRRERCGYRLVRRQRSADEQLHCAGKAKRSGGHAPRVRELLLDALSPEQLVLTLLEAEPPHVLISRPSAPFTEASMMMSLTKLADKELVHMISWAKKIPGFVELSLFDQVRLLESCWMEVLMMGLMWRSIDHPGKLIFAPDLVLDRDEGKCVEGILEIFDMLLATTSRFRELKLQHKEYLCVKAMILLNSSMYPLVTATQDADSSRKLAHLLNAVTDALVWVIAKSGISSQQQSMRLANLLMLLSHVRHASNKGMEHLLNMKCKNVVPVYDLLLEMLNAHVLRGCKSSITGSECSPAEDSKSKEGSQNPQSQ

With 4-hydroxytamoxifen [4-OH-Tamoxifen] as the compound, how does the “sensitivity of ER(T2) to 4-OH-Tamoxifen relative to the ER(T) mutant” value [1] read?
The value was “roughly 10 fold”.

With `COC(=O)[C@]12CCC(C)(C)C[C@H]1[C@H]1C(=O)C=C3[C@@]4(C)C=C(C#N)C(=O)C(C)(C)[C@@H]4CC[C@@]3(C)[C@]1(C)CC2` [CDDO-Me, Bardoxolone methyl] as the compound, how does the pKi [2] read?
Its pKi is 6.9).

For `CCC(=O)NC[C@H](Cc1ccc(OCCc2nc(-c3ccccc3)oc2C)cc1)N/C(C)=C\C(=O)c1ccc(C(F)(F)F)cc1` [GW6471], which pIC50 [3] is on record?
Its pIC50 is “(pIC50 6.6)”.

Which pIC50 ([2]; Irreversible inhibition) does the source give for `O=C(Nc1ccccc1)c1cc([N+](=O)[O-])ccc1Cl` [GW9662] here?
Its pIC50 is “(pIC50 8.1)”.

Which pKi [4] does the source give for `Oc1ccc(-c2c(-c3ccccc3)nn3c(C(F)(F)F)cc(C(F)(F)F)nc23)cc1` [PHTPP] here?
Its pKi is “(pKi 6.9) (CAS”.

With `CC[C@@H]1Cc2cc(O)ccc2C2=C1c1ccc(O)cc1C[C@H]2CC` [R,R-THC] as the compound, how does the pKi [4] read?
The pKi was 8.4) (CAS.

Which pIC50 (Rev-Erb-α (NR1D1)) does the source give for `CCOC(=O)C1Cc2ccccc2CN1C(=O)c1ccc(SC)s1` (stereo not drawn) [SR8278] here?
Its pIC50 is 6.5) (CAS.

With `C=C1C[C@H](C[C@@H](C)[C@H]2CC[C@H]3/C(=C/C=C4/C[C@@H](O)C[C@H](O)C4=C)CCC[C@]23C)OC1=O` [TEI-9647] as the compound, how does the pIC50 (Vitamin D receptor [5]) read?
The pIC50 was “(pIC50 8.2)”.

For `C=C1/C(=C\C=C2/CCC[C@]3(C)[C@@H]([C@H](C)/C=C/[C@@H](O)C4(C(=O)OCCCC)CC4)CC[C@@H]23)C[C@@H](O)C[C@@H]1O` [ZK159222], which pIC50 (Vitamin D receptor [6]) is on record?
The pIC50 was “(pIC50 7.5)”.

Which pIC50 [7] does the source give for `CCOc1ncc(C)c2c1[C@H](c1ccc(C#N)cc1OC)C(C(N)=O)=C(C)N2` [finerenone] here?
The pIC50 was “(pIC50 7.7),”.

What does the source list for `CN(C)c1ccc([C@H]2C[C@]3(C)[C@@H](CC[C@]3(O)CCCO)[C@@H]3CCC4=CC(=O)CCC4=C32)cc1` [onapristone]?
pIC50 [8]: (pIC50 7.6),; pIC50 [7]: (pIC50 6.3),
